Experiments:
Test in all cases: relative viability vs DMSO control (72 h) (fraction); higher = more viable cells
A204 = test system: A204
Summary of the method: (§1)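 Sarcoma cell lines went into 384-well plates at densities chosen to reach 80–90% confluence. After 24 h, each well received 2.5 µl of serially diluted compound, with source plates running from 10 mM to 0.0002 mM, and the plates were kept 72 h at 37 °C, 5% CO2, alongside 0.1% DMSO vehicle and a 5 µM positive control. Relative viability was derived from ATPLite readings as percent growth and averaged over up to triplicate wells. The data were then rescaled so that 1 stands for full and 0 for none.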

KHOS-NP = test system: KHOS-NP
Summary of the method: as §1

SW684 = test system: SW684
Summary of the method: as §1

SW872 = test system: SW872
Summary of the method: as §1

HS729 = test system: HS729
Summary of the method: as §1

CO[C@H]1C[C@@H]2CC[C@@H](C)[C@@](O)(O2)C(=O)C(=O)N2CCCC[C@H]2C(=O)O[C@H]([C@H](C)C[C@@H]2CC[C@@H](O)[C@H](OC)C2)CC(=O)[C@H](C)/C=C(\C)[C@@H](O)[C@@H](OC)C(=O)[C@H](C)C[C@H](C)/C=C/C=C/C=C/1C [Rapamycin]
relative viability
Conditions	A204	HS729	KHOS-NP	SW684	SW872
0.00017 µM	0.894	0.98	1.04	0.9947	0.867
0.00051 µM	0.707	0.999	1.05	0.936	0.787
0.00152 µM	0.614	1.01	1.07	0.812	0.729
0.00457 µM	0.542	0.972	1.07	0.743	0.659
0.01372 µM	0.513	0.97	1.06	0.678	0.602
0.04115 µM	0.499	0.926	1.06	0.681	0.565
0.1235 µM	0.489	0.962	1.03	0.718	0.543
0.3704 µM	0.464	0.877	1.04	0.718	0.548
1.111 µM	0.453	0.918	1.05	0.75	0.561
3.333 µM	0.425	0.891	1.02	0.752	0.567
10 µM	0.408	0.92	0.882	0.682	0.553

C=CC(=O)Nc1cccc(Nc2nc(Nc3ccc(N4CCN(C(C)=O)CC4)cc3OC)ncc2C(F)(F)F)c1 [Rociletinib]
relative viability
Conditions	A204	HS729	KHOS-NP	SW684	SW872
0.00017 µM	1.06	1.01	1.09	1.13	1.1
0.00051 µM	1.08	0.925	1.1	1.16	1.08
0.00152 µM	1.13	0.9024	1.113	1.16	1.07
0.00457 µM	1.1	0.9205	1.09	1.17	1.07
0.01372 µM	1.12	0.902	1.09	1.18	1.05
0.04115 µM	1.04	0.924	1.06	1.18	1.048
0.1235 µM	1.11	0.89	1.09	1.14	1.04
0.3704 µM	1.08	0.812	1.07	1.1	1.01
1.111 µM	1.03	0.697	1.06	1.004	0.89
3.333 µM	0.589	0.573	1.025	0.908	0.713
10 µM	0.302	0.343	0.537	0.666	0.475

CN(C)C[C@@H]1CCn2cc(c3ccccc32)C2=C(C(=O)NC2=O)c2cn(c3ccccc23)CCO1 [Ruboxistaurin]
relative viability
Conditions	A204	HS729	KHOS-NP	SW684	SW872
0.00017 µM	1.08	0.917	1.09	1.12	1
0.00051 µM	1.07	0.936	1.09	1.157	1.04
0.00152 µM	1.08	0.8749	1.06	1.158	1.02
0.00457 µM	1.06	0.882	1.07	1.17	1.06
0.01372 µM	1.06	0.895	1.06	1.16	0.989
0.04115 µM	1.08	0.939	1.08	1.11	1.04
0.1235 µM	1.03	0.894	1.073	1.15	1.01
0.3704 µM	1.05	0.819	1.093	1.16	1.02
1.111 µM	0.881	0.917	1.1	1.14	0.9094
3.333 µM	0.808	0.835	1.073	1.15	0.846
10 µM	0.0478	0.812	1.045	0.857	0.599

CN1CCN(CCOc2cc(OC3CCOCC3)c3c(Nc4c(Cl)ccc5c4OCO5)ncnc3c2)CC1 [Saracatinib]
relative viability
Conditions	A204	HS729	KHOS-NP	SW684	SW872
0.00017 µM	1.03	1	1.094	1.11	1.07
0.00051 µM	1.05	0.991	1.1	1.15	1.05
0.00152 µM	1.06	0.97	1.08	1.16	1.06
0.00457 µM	1.06	0.983	1.07	1.177	1.019
0.01372 µM	1.04	0.885	1.07	1.15	1.05
0.04115 µM	1.01	0.867	1.061	1.17	0.977
0.1235 µM	0.992	0.869	1.06	1.14	0.9173
0.3704 µM	0.963	0.792	1.05	1.15	0.828
1.111 µM	0.882	0.691	0.994	1.07	0.693
3.333 µM	0.679	0.62	0.862	1.05	0.655
10 µM	0.468	0.627	0.693	1.08	0.59

CNC(=O)c1cc(Oc2ccc(NC(=O)Nc3ccc(Cl)c(C(F)(F)F)c3)cc2)ccn1 [Sorafenib]
relative viability
Conditions	A204	HS729	KHOS-NP	SW684	SW872
0.00017 µM	1.07	0.948	1.09	1.2	1.09
0.00051 µM	1.1	0.966	1.09	1.2	1.09
0.00152 µM	1.09	0.939	1.1	1.18	1.05
0.00457 µM	1.11	0.978	1.09	1.19	1.06
0.01372 µM	1.06	0.946	1.08	1.16	1.09
0.04115 µM	1.08	1.02	1.1	1.2	1.09
0.1235 µM	0.914	0.937	1.103	1.23	1.07
0.3704 µM	0.567	0.85	1.08	1.27	1.09
1.111 µM	0.51	0.858	0.993	1.32	1.07
3.333 µM	0.385	0.811	0.534	0.938	1.02
10 µM	0.157	0.624	0.375	0.276	0.553

CCN(c1cc(-c2ccc(CN3CCOCC3)cc2)cc(C(=O)NCc2c(C)cc(C)[nH]c2=O)c1C)C1CCOCC1 [Tazemetostat]
relative viability
Conditions	A204	HS729	KHOS-NP	SW684	SW872
0.00017 µM	1.04	1.04	1.05	1.05	1.04
0.00051 µM	1.09	1.05	1.06	1.092	1.07
0.00152 µM	1.08	1.03	1.06	1.11	1.07
0.00457 µM	1.07	1.05	1.07	1.1	1.072
0.01372 µM	1.03	1.04	1.04	1.12	1.066
0.04115 µM	1.069	1.01	1.04	1.12	1.08
0.1235 µM	1.08	0.98	1.015	1.12	1.05
0.3704 µM	1.08	1	0.997	1.11	1.06
1.111 µM	1.08	0.938	0.98	1.12	1.02
3.333 µM	1.09	0.932	0.998	1.14	1.03
10 µM	1.05	0.892	0.934	1.1	1.02

Cc1cccc(-c2[nH]c(CNc3ccccc3F)nc2-c2ccc3ncnn3c2)n1 [Vactosertib]
relative viability
Conditions	A204	HS729	KHOS-NP	SW684	SW872
0.00017 µM	1.02	0.964	1.05	1.15	0.928
0.00051 µM	1.02	0.969	1.05	1.08	0.938
0.00152 µM	1.02	0.938	1.05	1.08	0.932
0.00457 µM	1.01	0.962	1.04	1.1	0.958
0.01372 µM	1.02	0.928	1.03	1.07	0.979
0.04115 µM	1.03	0.939	1.02	1.06	0.95
0.1235 µM	0.983	0.882	1.046	1.07	0.969
0.3704 µM	1.04	0.849	1.05	1.04	0.999
1.111 µM	1.03	0.787	1.05	1.08	1.06
3.333 µM	0.953	0.73	1.05	1.07	1.062
10 µM	0.822	0.68	1.011	1.11	1.02

C[C@@H]1COC(Nc2ccc3ncnc(Nc4ccc(OCc5nccs5)c(Cl)c4)c3c2)=N1 [Varlitinib]
relative viability
Conditions	A204	HS729	KHOS-NP	SW684	SW872
0.00017 µM	1.06	1.08	1.03	1.01	1.09
0.00051 µM	1.06	1.05	1.05	1.09	1.07
0.00152 µM	1.07	1.08	1.06	1.07	1.1
0.00457 µM	1.06	1.06	1.05	1.08	1.08
0.01372 µM	1.08	1.03	1.06	1.08	1.065
0.04115 µM	1.11	1.05	1.05	1.08	1.08
0.1235 µM	1.06	0.993	1.07	1.063	1.05
0.3704 µM	1.01	0.994	1.06	1.08	1.04
1.111 µM	0.905	0.9668	1.04	1.06	0.993
3.333 µM	0.763	0.931	1.04	1.03	0.939
10 µM	0.258	0.76	0.94	1.03	0.743

CC[C@@H]1C(=O)N(C)c2cnc(Nc3ccc(C(=O)N[C@H]4CC[C@H](N5CCN(CC6CC6)CC5)CC4)cc3OC)nc2N1C(C)C [Volasertib]
relative viability
Conditions	A204	HS729	KHOS-NP	SW684	SW872
0.00017 µM	1.13	0.954	1.07	1.19	1.06
0.00051 µM	1.1	0.995	1.06	1.21	1.03
0.00152 µM	1.07	0.981	1.07	1.22	1.05
0.00457 µM	1.1	0.954	1.08	1.17	1.08
0.01372 µM	1.08	0.87	1.09	1.13	1.06
0.04115 µM	0.858	0.685	1.01	0.694	0.623
0.1235 µM	0.669	0.622	0.471	0.675	0.437
0.3704 µM	0.418	0.657	0.276	0.731	0.269
1.111 µM	0.253	0.641	0.222	0.675	0.176
3.333 µM	0.174	0.612	0.184	0.6025	0.0454
10 µM	0.0197	0.0591	0.0214	0.0835	0.00513
